Source: the supplement of paper PMC10883282
± gives the standard deviation of the averaged measurements.

Test system: SW872
Test: relative viability vs DMSO control (72 h) (fraction); higher = more viable cells
In short: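 Plates held 72 h at 37 °C and 5% CO2 contained sarcoma cell lines seeded in 384-well format to reach 80–90% confluence, plus 2.5 µl of serially diluted compound added after 24 h. Source plate concentrations ran from 10 mM to 0.0002 mM, with 0.1% DMSO as vehicle and a 5 µM positive control. Percent growth from ATPLite readings, averaged over up to triplicate wells, gave relative viability. Values were rescaled with 1 as full and 0 as none.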

## CC(C)N1CCN(Cc2cnc(-c3cc(-c4cccc5[nH]ccc45)cc4[nH]ncc34)o2)CC1 [Nemiralisib]
0.00017 µM
  relative viability: 0.975 ± 0.035
0.00051 µM
  relative viability: 0.982 ± 0.036
0.00152 µM
  relative viability: 0.945 ± 0.043
0.00457 µM
  relative viability: 0.945 ± 0.018
0.01372 µM
  relative viability: 0.916 ± 0.033
0.04115 µM
  relative viability: 0.949 ± 0.042
0.1235 µM
  relative viability: 0.952 ± 0.018
0.3704 µM
  relative viability: 0.896 ± 0.014
1.111 µM
  relative viability: 0.819 ± 0.032
3.333 µM
  relative viability: 0.622 ± 0.043
10 µM
  relative viability: 0.448 ± 0.017

## C=CC(=O)N1CCC[C@@H](n2nc(-c3ccc(Oc4ccccc4)cc3)c3c(N)ncnc32)C1 [Ibrutinib]
0.00017 µM
  relative viability: 1.06 ± 0.016
0.00051 µM
  relative viability: 1.06 ± 0.017
0.00152 µM
  relative viability: 1.06 ± 0.064
0.00457 µM
  relative viability: 1.01 ± 0.022
0.01372 µM
  relative viability: 1.01 ± 0.042
0.04115 µM
  relative viability: 0.976 ± 0.037
0.1235 µM
  relative viability: 0.98 ± 0.081
0.3704 µM
  relative viability: 0.923 ± 0.024
1.111 µM
  relative viability: 0.9099 ± 0.0036
3.333 µM
  relative viability: 0.84 ± 0.049
10 µM
  relative viability: 0.583 ± 0.027

## CN1CCC(COc2cnc(-c3cccc(Cn4nc(-c5cccc(C#N)c5)ccc4=O)c3)nc2)CC1 [Tepotinib]
0.00017 µM
  relative viability: 1.057 ± 0.008
0.00051 µM
  relative viability: 1.07 ± 0.02
0.00152 µM
  relative viability: 1.05 ± 0.037
0.00457 µM
  relative viability: 1.04 ± 0.022
0.01372 µM
  relative viability: 1.03 ± 0.038
0.04115 µM
  relative viability: 1.01 ± 0.022
0.1235 µM
  relative viability: 1.04 ± 0.016
0.3704 µM
  relative viability: 1.02 ± 0.043
1.111 µM
  relative viability: 0.999 ± 0.019
3.333 µM
  relative viability: 0.972 ± 0.039
10 µM
  relative viability: 0.918 ± 0.033

## C[C@@H]1CCN(C(=O)CC#N)C[C@@H]1N(C)c1ncnc2[nH]ccc12 [Tofacitinib]
0.00017 µM
  relative viability: 1.12 ± 0.03
0.00051 µM
  relative viability: 1.08 ± 0.035
0.00152 µM
  relative viability: 1.1 ± 0.028
0.00457 µM
  relative viability: 1.09 ± 0.056
0.01372 µM
  relative viability: 1.08 ± 0.032
0.04115 µM
  relative viability: 1.04 ± 0.081
0.1235 µM
  relative viability: 1.03 ± 0.056
0.3704 µM
  relative viability: 1.02 ± 0.063
1.111 µM
  relative viability: 0.946 ± 0.068
3.333 µM
  relative viability: 0.887 ± 0.095
10 µM
  relative viability: 0.747 ± 0.064

## Cc1cc(Nc2ncnc3ccc(NC4=NC(C)(C)CO4)cc23)ccc1Oc1ccn2ncnc2c1 [Tucatinib]
0.00017 µM
  relative viability: 1.07 ± 0.017
0.00051 µM
  relative viability: 1.08 ± 0.04
0.00152 µM
  relative viability: 1.08 ± 0.016
0.00457 µM
  relative viability: 1.09 ± 0.037
0.01372 µM
  relative viability: 1.07 ± 0.051
0.04115 µM
  relative viability: 1.08 ± 0.011
0.1235 µM
  relative viability: 1.08 ± 0.017
0.3704 µM
  relative viability: 1.04 ± 0.035
1.111 µM
  relative viability: 1.06 ± 0.04
3.333 µM
  relative viability: 1.03 ± 0.045
10 µM
  relative viability: 0.994 ± 0.038

## O=C(Nc1cnn2ccc(N3CCC[C@@H]3c3cc(F)ccc3F)nc12)N1CC[C@H](O)C1 [Larotrectinib]
0.00017 µM
  relative viability: 1.09 ± 0.022
0.00051 µM
  relative viability: 1.12 ± 0.052
0.00152 µM
  relative viability: 1.09 ± 0.072
0.00457 µM
  relative viability: 1.08 ± 0.049
0.01372 µM
  relative viability: 1.05 ± 0.11
0.04115 µM
  relative viability: 0.99 ± 0.076
0.1235 µM
  relative viability: 1.06 ± 0.095
0.3704 µM
  relative viability: 1.06 ± 0.078
1.111 µM
  relative viability: 1.03 ± 0.065
3.333 µM
  relative viability: 1.03 ± 0.056
10 µM
  relative viability: 0.986 ± 0.044

## C=CC(=O)N1CCC([C@@H]2CCNc3c(C(N)=O)c(-c4ccc(Oc5ccccc5)cc4)nn32)CC1 [Zanubrutinib]
0.00017 µM
  relative viability: 1.01 ± 0.032
0.00051 µM
  relative viability: 1.03 ± 0.028
0.00152 µM
  relative viability: 0.996 ± 0.038
0.00457 µM
  relative viability: 1.01 ± 0.029
0.01372 µM
  relative viability: 0.9666 ± 0.0096
0.04115 µM
  relative viability: 0.954 ± 0.046
0.1235 µM
  relative viability: 0.883 ± 0.066
0.3704 µM
  relative viability: 0.923 ± 0.026
1.111 µM
  relative viability: 0.912 ± 0.034
3.333 µM
  relative viability: 0.929 ± 0.029
10 µM
  relative viability: 0.844 ± 0.022

## CO[C@H]1C[C@@H]2CC[C@@H](C)[C@@](O)(O2)C(=O)C(=O)N2CCCC[C@H]2C(=O)O[C@H]([C@H](C)C[C@@H]2CC[C@@H](OP(C)(C)=O)[C@H](OC)C2)CC(=O)[C@H](C)/C=C(\C)[C@@H](O)[C@@H](OC)C(=O)[C@H](C)C[C@H](C)/C=C/C=C/C=C/1C [Ridaforolimus]
0.00017 µM
  relative viability: 0.974 ± 0.036
0.00051 µM
  relative viability: 0.833 ± 0.034
0.00152 µM
  relative viability: 0.747 ± 0.021
0.00457 µM
  relative viability: 0.7118 ± 0.0071
0.01372 µM
  relative viability: 0.626 ± 0.035
0.04115 µM
  relative viability: 0.6 ± 0.034
0.1235 µM
  relative viability: 0.5981 ± 0.0039
0.3704 µM
  relative viability: 0.597 ± 0.0072
1.111 µM
  relative viability: 0.579 ± 0.012
3.333 µM
  relative viability: 0.565 ± 0.017
10 µM
  relative viability: 0.565 ± 0.015

## COc1cc2/c(=N/c3ccc(Br)cc3F)nc[nH]c2cc1OCC1CCN(C)CC1 [Vandetanib]
0.00017 µM
  relative viability: 1.02 ± 0.046
0.00051 µM
  relative viability: 1.01 ± 0.052
0.00152 µM
  relative viability: 1 ± 0.036
0.00457 µM
  relative viability: 1.02 ± 0.041
0.01372 µM
  relative viability: 1.03 ± 0.02
0.04115 µM
  relative viability: 0.987 ± 0.051
0.1235 µM
  relative viability: 0.964 ± 0.0059
0.3704 µM
  relative viability: 0.91 ± 0.025
1.111 µM
  relative viability: 0.802 ± 0.03
3.333 µM
  relative viability: 0.5804 ± 0.0048
10 µM
  relative viability: 0.00997 ± 0.0034

## CCc1cc2c(cc1N1CCC(N3CCOCC3)CC1)C(C)(C)c1[nH]c3cc(C#N)ccc3c1C2=O [Alectinib]
0.00017 µM
  relative viability: 1.03 ± 0.043
0.00051 µM
  relative viability: 1.02 ± 0.063
0.00152 µM
  relative viability: 1.05 ± 0.069
0.00457 µM
  relative viability: 1.04 ± 0.036
0.01372 µM
  relative viability: 1.07 ± 0.053
0.04115 µM
  relative viability: 1.06 ± 0.046
0.1235 µM
  relative viability: 1.09 ± 0.062
0.3704 µM
  relative viability: 1.07 ± 0.069
1.111 µM
  relative viability: 1.09 ± 0.058
3.333 µM
  relative viability: 1.07 ± 0.076
10 µM
  relative viability: 1.08 ± 0.065

## Cc1nc(-c2cn3c(n2)-c2ccc(-c4cnn(C(C)(C)C(N)=O)c4)cc2OCC3)n(C(C)C)n1 [Taselisib]
0.00017 µM
  relative viability: 1 ± 0.044
0.00051 µM
  relative viability: 0.996 ± 0.03
0.00152 µM
  relative viability: 1.02 ± 0.021
0.00457 µM
  relative viability: 0.9808 ± 0.006
0.01372 µM
  relative viability: 0.93 ± 0.061
0.04115 µM
  relative viability: 0.88 ± 0.017
0.1235 µM
  relative viability: 0.758 ± 0.029
0.3704 µM
  relative viability: 0.643 ± 0.012
1.111 µM
  relative viability: 0.504 ± 0.015
3.333 µM
  relative viability: 0.381 ± 0.015
10 µM
  relative viability: 0.284 ± 0.018

## O=C(Cc1ccc(-c2ccc(OCCN3CCOCC3)cc2)cn1)NCc1ccccc1 [KX2-391]
0.00017 µM
  relative viability: 1.06 ± 0.031
0.00051 µM
  relative viability: 1.05 ± 0.037
0.00152 µM
  relative viability: 1.08 ± 0.029
0.00457 µM
  relative viability: 1.03 ± 0.031
0.01372 µM
  relative viability: 1.04 ± 0.034
0.04115 µM
  relative viability: 0.912 ± 0.049
0.1235 µM
  relative viability: 0.504 ± 0.037
0.3704 µM
  relative viability: 0.472 ± 0.029
1.111 µM
  relative viability: 0.435 ± 0.014
3.333 µM
  relative viability: 0.443 ± 0.022
10 µM
  relative viability: 0.461 ± 0.028
